Experimental data published in PubChem BioAssay AID1259333 (Broad Institute, 2017).
Activity calls are given as the source filed them. How the calls were made is not given here; tested in parental BL2 cells.

Experiment: cell cytotoxicity, dose response, cytotoxicity control, CellTiter-Glo (AID 1259333);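 further: 0% = vehicle neutral controls and -100% = reference inhibitor positive controls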
Conditions: cytotoxicity, CellTiter-Glo ATP luminescence; at 3.5 µM (top of the series)
For `O=C(Nc1ccc(C(F)(F)F)cc1)Nc1ccc2c(c1)[C@H]1C[C@@H](CC(=O)N3CCc4ccccc4C3)O[C@@H](CO)[C@H]1O2`, the activity change, negative = cytotoxicity was 30.5% (inactive).
For `C[C@@H]1CCCCO[C@@H](CN(C)CC2CCCCC2)[C@@H](C)CN([C@@H](C)CO)C(=O)c2cc(NC(=O)Nc3ccc(C(F)(F)F)cc3)ccc2O1`, the activity change, negative = cytotoxicity was 15% (inactive).
In the case of `N#C[C@H]1[C@H](c2ccc(C#CC3CCCCC3)cc2)[C@@H](CO)N1C(=O)Nc1ccc(F)cc1`, the activity change, negative = cytotoxicity is reported as 25.8% (inactive).
For `Cc1[nH]c2ccccc2c1C(c1ccccn1)N1CCC(C(N)=O)CC1` (stereo unspecified), the activity change, negative = cytotoxicity was 29.7% (inactive).
With `C[C@@H]1CCCCO[C@@H](CN(C)C(=O)C2CCCCC2)[C@@H](C)CN([C@H](C)CO)C(=O)c2cc(NS(=O)(=O)c3ccccc3)ccc2O1` the activity change, negative = cytotoxicity was 22.5% (inactive).
In the case of `Cc1ccccc1NC(=O)c1nc(S(C)(=O)=O)ncc1Cl`, the activity change, negative = cytotoxicity is reported as 64.5% (inactive).
In the case of `CC(C)(C)c1cc(/C=C(\C#N)C(N)=S)cc(C(C)(C)C)c1O`, the activity change, negative = cytotoxicity is reported as 26.8% (inactive).

Same assay, conditions: cytotoxicity, CellTiter-Glo ATP luminescence; at 10 µM (top of the series)
In the case of `O=C(CCN1CCC(c2ccccc2)C1)c1ccc2c(c1)OCCO2` (stereo unspecified), the activity change, negative = cytotoxicity is reported as 28% (inactive).
For `O=C(Nc1ccc2c(c1)OCCO2)C1CCCC1`, the activity change, negative = cytotoxicity was 9.1% (inactive).
For `CCCn1c(NC(=O)c2cccc(S(=O)(=O)N3CCCC3)c2)nc2ccccc21`, the activity change, negative = cytotoxicity was 12.5% (inactive).
For `CC(OC(=O)c1cc(Br)ccc1O)C(=O)Nc1ccc(S(=O)(=O)N2CCCC2)cc1` (stereo unspecified), the activity change, negative = cytotoxicity was 47% (inactive).
With `CC(C)C1CC(N(C)C)=CC(=S)N1` (stereo unspecified) the activity change, negative = cytotoxicity was 24.5% (inactive).
With `Cc1ccc(S(=O)(=O)N[C@@H](Cc2ccccc2)C(=O)CCl)cc1` the activity change, negative = cytotoxicity was 82.4% (inactive).
For `COCCn1c(C)cc(C(=O)COC(=O)c2ccc(Br)o2)c1C`, the activity change, negative = cytotoxicity was 28.5% (inactive).
With `N#C[C@H]1[C@H](c2ccc(C#Cc3ccc(F)cc3)cc2)[C@@H](CO)N1C(=O)C1CCC1` the activity change, negative = cytotoxicity was -4.11% (inactive).
For `CC1=CC(=O)c2c(O)cccc2C1=O`, the activity change, negative = cytotoxicity was 112% (inactive).
For `C[C@H]1CN([C@@H](C)CO)C(=O)c2ccccc2-c2ccccc2CO[C@H]1CN(C)C(=O)[C@@H](Cc1ccccc1)N(C)C`, the activity change, negative = cytotoxicity was 83.4% (inactive).
For `CN(C)c1ccc(NC(=O)c2cnsn2)cc1`, the activity change, negative = cytotoxicity was 17.7% (inactive).
With `Cc1ccc(OC(=O)N(C)C[C@@H]2OCc3ccccc3-c3c(n(C)c4ccccc34)C(=O)N([C@@H](C)CO)C[C@H]2C)cc1` the activity change, negative = cytotoxicity was 5.02% (inactive).
With `Cc1nc(-c2ccc(OCC(C)C)c(C#N)c2)sc1C(=O)O` the activity change, negative = cytotoxicity was 23.3% (inactive).
In the case of `CC(=NNC(=S)N1CC2CCC(CC2)C1)c1nccs1`, the activity change, negative = cytotoxicity is reported as 126% (inactive).
In the case of `O=C1C=CC(=O)C2=C1C1c3ccccc3C2c2ccccc21`, the activity change, negative = cytotoxicity is reported as 90.3% (inactive).
For `CCCNC(=O)N1[C@H](CO)[C@H](c2ccc(-c3cccc(OC)c3)cc2)[C@@H]1C#N`, the activity change, negative = cytotoxicity was 27% (inactive).
In the case of `Cc1ccc2nc(C(F)(F)F)c(C#N)c(N)c2c1`, the activity change, negative = cytotoxicity is reported as 1.7% (inactive).
For `CCCNC(=O)N1[C@H](C#N)[C@H](c2ccc(C#Cc3cccc(F)c3)cc2)[C@H]1CO`, the activity change, negative = cytotoxicity was 16.9% (inactive).
In the case of `Cc1cc(C)c2c(c1)SC1=NC(c3ccccc3)(C(F)(F)F)NC(=O)N12` (stereo unspecified), the activity change, negative = cytotoxicity is reported as 30.7% (inactive).
With `O=S(=O)(CCSc1ccccn1)c1nc2ccccc2s1` the activity change, negative = cytotoxicity was 55.1% (inactive).
For `O=C(C1CC1)N1C[C@@H]2N[C@H](C1)C2c1ccc(-c2cccc(F)c2)cc1` (stereo partly specified), the activity change, negative = cytotoxicity was -17.6% (inactive).
In the case of `COc1ccc(C(=O)/C=C/C(=O)N(CC(=O)NC2CCCCC2)Cc2ccc(F)cc2)c(O)c1`, the activity change, negative = cytotoxicity is reported as 46.2% (inactive).
For `COc1ccc(S(=O)(=O)Nc2ccc3c(c2)C(=O)N([C@H](C)CO)C[C@@H](C)[C@@H](CN(C)Cc2ccc(C(F)(F)F)cc2)OCCCC[C@@H](C)O3)cc1`, the activity change, negative = cytotoxicity was 4.86% (inactive).
With `CSC1SCC2C(=O)N(C)C(C(C)C)C(=O)OCC(NC(=O)c3cnc4ccccc4n3)C(=O)NC(C)C(=O)N(C)C1C(=O)N(C)C(C(C)C)C(=O)OCC(NC(=O)c1cnc3ccccc3n1)C(=O)NC(C)C(=O)N2C` (stereo unspecified) the activity change, negative = cytotoxicity was 62.7% (inactive).
In the case of `C[C@@H]1CN([C@@H](C)CO)C(=O)c2ccccc2-c2ccccc2CO[C@@H]1CN(C)C(=O)c1cc(Cl)cc(Cl)c1`, the activity change, negative = cytotoxicity is reported as 38.8% (inactive).
For `Cn1c(CO)nc2cc(N)ccc21`, the activity change, negative = cytotoxicity was 34.6% (inactive).
In the case of `COc1ccccc1NC(c1cccnc1)c1ccc2cccnc2c1O` (stereo unspecified), the activity change, negative = cytotoxicity is reported as 123% (inactive).
For `CCc1cnc(N2[C@H](C#N)[C@@H](c3ccccc3C3=CCCC3)[C@@H]2CO)s1`, the activity change, negative = cytotoxicity was -4.08% (inactive).
With `O=C1C[C@H](c2ccccc2)C(=O)N[C@@H](c2ccccc2)C/C=C\C[C@@H](c2ccccc2)N1` the activity change, negative = cytotoxicity was 72.2% (inactive).
In the case of `O=C(CNC(=O)c1ccco1)Nc1ccc2c(c1)OCCO2`, the activity change, negative = cytotoxicity is reported as -6.17% (inactive).
For `CCN(CC(=O)Nc1ccc(NC(C)=O)cc1)C(=O)C1CCCN(C(=O)c2ccc(Cl)cc2)C1` (stereo unspecified), the activity change, negative = cytotoxicity was 33.9% (inactive).
For `O=C(C[C@@H]1CC[C@H]2[C@@H](COC[C@@H](O)CN2Cc2cc(F)ccc2F)O1)NCc1ccc(Oc2ccccc2)cc1`, the activity change, negative = cytotoxicity was 14.2% (inactive).
For `COc1ccc(C#Cc2ccc([C@@H]3[C@H](CO)N4CCCCN(C(=O)Nc5cccc(F)c5)C[C@@H]34)cc2)cc1`, the activity change, negative = cytotoxicity was 50.4% (inactive).
With `CCCCCCCCCc1ccc(OCCOCCOCCOCCOCCOCCOCCOCCOCCO)cc1` the activity change, negative = cytotoxicity was 13.3% (inactive).
In the case of `COc1cccc(S(=O)(=O)N(C)C[C@@H]2OCc3ccccc3-c3c(n(C)c4ccccc34)C(=O)N([C@H](C)CO)C[C@@H]2C)c1`, the activity change, negative = cytotoxicity is reported as 41.8% (inactive).
In the case of `CCCCn1c(NC(=O)c2ccc(Br)o2)c(S(=O)(=O)c2ccccc2)c2nc3ccccc3nc21`, the activity change, negative = cytotoxicity is reported as 62.4% (inactive).
With `Cc1cnc(NC(=O)c2ccc(OCC3CCCO3)cc2)s1` (stereo unspecified) the activity change, negative = cytotoxicity was 5.83% (inactive).
In the case of `O=C(C#Cc1ccccc1)c1ccccc1`, the activity change, negative = cytotoxicity is reported as 43.8% (inactive).
With `CCCCc1nc2ccccc2[nH]1` the activity change, negative = cytotoxicity was 13.9% (inactive).
In the case of `N#C[C@H]1[C@@H](c2ccc(C#CC3CCCCC3)cc2)[C@H](CO)N1C(=O)Nc1ccc(F)cc1`, the activity change, negative = cytotoxicity is reported as 22.4% (inactive).
For `C=C1C(=O)OC2C=C(CO)CCC=C(CO)CC(OC(=O)C(C)C)C12` (stereo unspecified), the activity change, negative = cytotoxicity was 38.2% (inactive).
For `CC(C)OC(=O)CC1C(=O)NCCN1C(=S)NC(=O)c1cccs1` (stereo unspecified), the activity change, negative = cytotoxicity was 19.9% (inactive).
In the case of `Oc1ccc(Cc2ccccc2)c2cccnc12`, the activity change, negative = cytotoxicity is reported as 41.6% (inactive).
With `CC[C@H]1CN2CCc3cc(OC)c(OC)cc3C2C[C@@H]1CC1NCCc2cc(OC)c(OC)cc21` (stereo partly specified) the activity change, negative = cytotoxicity was -31.6% (inactive).
For `COc1cccc(OC)c1OCCNCC1COc2ccccc2O1` (stereo unspecified), the activity change, negative = cytotoxicity was 48.7% (inactive).
For `O=C(NCc1ccccn1)C1CCCN(S(=O)(=O)c2ccccc2)C1` (stereo unspecified), the activity change, negative = cytotoxicity was 44.9% (inactive).
In the case of `Cc1csc(NC(=O)c2ccc(N3CCCC3=O)cc2)n1`, the activity change, negative = cytotoxicity is reported as 23.5% (inactive).
In the case of `CCN1C(=O)C(CC(=O)Nc2ccc(OC)cc2)N(CCc2ccc(F)cc2)C1=S` (stereo unspecified), the activity change, negative = cytotoxicity is reported as 24.7% (inactive).
For `O=C(c1nnsc1S(=O)(=O)c1ccc(Cl)cc1)N1CCOCC1`, the activity change, negative = cytotoxicity was 40.8% (inactive).
In the case of `CC1CCCC=CC2CC(OC(=O)CN(C)C)CC2C(O)C=CC(=O)O1` (stereo unspecified), the activity change, negative = cytotoxicity is reported as 53.7% (inactive).
With `COc1ccc(C(=O)CCN2CCc3cc(OC)c(OC)cc3C2)cc1` the activity change, negative = cytotoxicity was 22.2% (inactive).
In the case of `C[C@H](CO)N1C[C@H](C)[C@@H](CN(C)Cc2ccc(Cl)c(Cl)c2)OCCCC[C@H](C)Oc2ccc(NS(=O)(=O)c3cccs3)cc2C1=O`, the activity change, negative = cytotoxicity is reported as 9.11% (inactive).
In the case of `COc1ccc2c3c([nH]c2c1)[C@H](CO)N(C(=O)Nc1cccc(F)c1)CC31CCN(S(=O)(=O)c2cccc(C)c2)CC1`, the activity change, negative = cytotoxicity is reported as 35% (inactive).
In the case of `CC(=O)NC12CC3CC(C1)CC(C(=O)OCC(=O)c1ccc4c(c1)OCCO4)(C3)C2`, the activity change, negative = cytotoxicity is reported as 20.6% (inactive).
In the case of `CC1(C)C(=O)C=C[C@@]2(C)C1C(=O)C(=O)[C@]1(C)C2CC[C@@]2(C)[C@H](c3ccoc3)C[C@H]3O[C@]321` (stereo partly specified), the activity change, negative = cytotoxicity is reported as 161% (inactive).
For `CCOc1ccc(OCc2cccc(C(=O)N3CCOCC3)c2)cc1`, the activity change, negative = cytotoxicity was 42% (inactive).
In the case of `O=C1CCCCC1Sc1nnc(-c2ccc3c(c2)OCO3)o1` (stereo unspecified), the activity change, negative = cytotoxicity is reported as 25.1% (inactive).
In the case of `O=c1cc(-c2ccc(O)cc2)oc2ccc3ccccc3c12`, the activity change, negative = cytotoxicity is reported as 20.1% (inactive).
For `CC1CNCCN1S(=O)(=O)c1cccc2cnccc12` (stereo unspecified), the activity change, negative = cytotoxicity was -37.9% (inactive).
In the case of `C[C@H](CO)N1C[C@H](C)[C@H](CN(C)Cc2ccc(Oc3ccccc3)cc2)OCc2ccccc2-c2ccccc2C1=O`, the activity change, negative = cytotoxicity is reported as 15.4% (inactive).
For `N#Cc1cccc(-c2ccc([C@@H]3[C@@H]4CN(S(=O)(=O)c5ccc(-c6ccccc6)cc5)C[C@H]3N4)cc2)c1`, the activity change, negative = cytotoxicity was 25.4% (inactive).
In the case of `COc1ccc(S(=O)(=O)N(C)C[C@@H]2Oc3ccc(NC(=O)Nc4ccc(C(F)(F)F)cc4)cc3C(=O)N([C@@H](C)CO)C[C@@H]2C)cc1`, the activity change, negative = cytotoxicity is reported as 84.5% (inactive).
For `O=C1C(Br)=C(c2ccccc2)C(c2ccccc2)=C1c1ccccc1`, the activity change, negative = cytotoxicity was -18.2% (inactive).
With `CCc1cc2c(COC(=O)c3cc(S(=O)(=O)N4CCOCC4)ccc3F)cc(=O)oc2cc1O` the activity change, negative = cytotoxicity was 64% (inactive).
For `CC1=CC(=O)c2ccccc2C1=O`, the activity change, negative = cytotoxicity was 36.2% (inactive).
In the case of `O=C(Nc1nnc(C2CC2)s1)C1CC(=O)N(c2ccc3c(c2)OCCO3)C1` (stereo unspecified), the activity change, negative = cytotoxicity is reported as 52.3% (inactive).
With `COc1ccc(S(=O)(=O)N(C)C[C@H]2Oc3ccc(NC(=O)Nc4ccc(C(F)(F)F)cc4)cc3C(=O)N([C@@H](C)CO)C[C@H]2C)cc1` the activity change, negative = cytotoxicity was 24.4% (inactive).
For `C=C1C(=O)OC2C=C(CO)C3OC3C3OC3(C)CC(OC(=O)/C(=C/C)COC(C)=O)C12` (stereo unspecified), the activity change, negative = cytotoxicity was 17.5% (inactive).
For `O=C1C(=Cc2ccccc2[N+](=O)[O-])Cc2ccccc21`, the activity change, negative = cytotoxicity was 161% (inactive).
